Columns and labels:
Assay type in all cases: cell-based, mouse
[1] = system: α7 integrin (LacZ reporter in α7βgal+/− myoblasts); assay: Myoblast α7+/LacZ integrin FDG assay (Burkin assay in myoblasts, 96-well); details: α7+/LacZ myoblasts, 96-well
[2] = system: β-galactosidase in CMV-LacZ C2C12 myoblasts; assay: CMV-LacZ secondary screen in C2C12 myoblasts (β-Gal stabilizing assay); details: CMV-LacZ C2C12 myoblasts
How it was run: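 Dose-response runs at 0.5–40 μM (0.5, 1, 5, 10, 20, 40 μM; N=2 per point) used a clonal C2C12 line carrying CMV-LacZ. Cells were assayed as myoblasts or as differentiated myotubes, and β-galactosidase levels were read with the FDG fluorogenic substrate.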

[3] = system: α7 integrin (LacZ reporter in α7+/LacZ myotubes); assay: Myotube α7 integrin FDG assay (Burkin assay in myotubes, 96-well); details: myotubes
[4] = system: β-galactosidase in CMV-LacZ C2C12 myotubes; assay: CMV-LacZ secondary screen in C2C12 myotubes (β-Gal stabilizing assay); details: C2C12 CMV-LacZ myotubes, fold relative to DMSO
How it was run: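 Stable CMV-LacZ C2C12 clone; six-point curve 0.5–40 μM; duplicates.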

SMILES	Burkin Assay in Myoblasts, signal relative to DMSO ([1]; 0.5 uM)	Burkin Assay in Myoblasts, signal relative to DMSO ([1]; 1 uM)	Burkin Assay in Myoblasts, signal relative to DMSO ([1]; 5 uM)	Burkin Assay in Myoblasts, signal relative to DMSO ([1]; 10 uM)	Burkin Assay in Myoblasts, signal relative to DMSO ([1]; 20 uM)	Burkin Assay in Myoblasts, signal relative to DMSO ([1]; 40 uM)	CMV-LACZ in Myoblasts (β-galactosidase activity relative to DMSO) ([2]; 0.5 uM)	CMV-LACZ in Myoblasts (β-galactosidase activity relative to DMSO) ([2]; 1 uM)	CMV-LACZ in Myoblasts (β-galactosidase activity relative to DMSO) ([2]; 5 uM)	CMV-LACZ in Myoblasts (β-galactosidase activity relative to DMSO) ([2]; 10 uM)	CMV-LACZ in Myoblasts (β-galactosidase activity relative to DMSO) ([2]; 20 uM)	CMV-LACZ in Myoblasts (β-galactosidase activity relative to DMSO) ([2]; 40 uM)	Burkin Assay in Myotubes, α7 integrin LacZ reporter signal relative to DMSO ([3]; 0.5 uM)	Burkin Assay in Myotubes, α7 integrin LacZ reporter signal relative to DMSO ([3]; 1 uM)	Burkin Assay in Myotubes, α7 integrin LacZ reporter signal relative to DMSO ([3]; 5 uM)	Burkin Assay in Myotubes, α7 integrin LacZ reporter signal relative to DMSO ([3]; 10 uM)	Burkin Assay in Myotubes, α7 integrin LacZ reporter signal relative to DMSO ([3]; 20 uM)	Burkin Assay in Myotubes, α7 integrin LacZ reporter signal relative to DMSO ([3]; 40 uM)	CMV-LACZ in Myotubes, signal relative to DMSO ([4]; 0.5 uM)	CMV-LACZ in Myotubes, signal relative to DMSO ([4]; 1 uM)	further results
CC(C)CN(C(=O)c1cccc(Cl)c1)c1c(N)n(Cc2ccccc2)c(=O)[nH]c1=O [MLS002163670-01]	1.117	1.234	1.012	0.9468	0.8972	0.7779	1.1806	0.8738	0.8671	0.9725	0.8611	1.4715	1.223	1.294	0.9778	1.072	0.8526	0.735	0.9237	1.2044	CMV-LACZ in Myotubes, signal relative to DMSO ([4]; 5 uM): 0.9788; CMV-LACZ in Myotubes, signal relative to DMSO ([4]; 10 uM): 0.8898; CMV-LACZ in Myotubes, signal relative to DMSO ([4]; 20 uM): 1.1659; CMV-LACZ in Myotubes, signal relative to DMSO ([4]; 40 uM): 1.1235
COc1ccc(C(=O)Cn2nnc(-c3ccccc3NC(=O)c3ccco3)n2)cc1 [MLS000072290-01]	1.405	1.196	0.7334	0.6517	0.3984	0.2238	1.0579	0.9000	1.4390	1.3303	0.3911	0.2915	1.109	1.121	0.9096	0.8405	0.475	0.1784	0.9362	1.1495	CMV-LACZ in Myotubes, signal relative to DMSO ([4]; 5 uM): 1.3265; CMV-LACZ in Myotubes, signal relative to DMSO ([4]; 10 uM): 1.1459; CMV-LACZ in Myotubes, signal relative to DMSO ([4]; 20 uM): 1.3484; CMV-LACZ in Myotubes, signal relative to DMSO ([4]; 40 uM): 1.0653

Reference: patent US9980943B2, “Methods of treating muscular dystrophy” (BOARD OF REGENTS OF THE NEVADA SYSTEM OF HIGHER EDUCATION, …, priority 2013, dated 2018)
